Tested on: MV4:11 (AML cell line)
Test: Combination viability assay (CellTiter-Glo), Bliss combination index
Details: MV4:11 cell line, 72 h; agent 1 μM combined with compound 3 at 2 μM; CI<1 synergism
Experimental: The cells were harvested just before reaching confluency, counted with a haemocytometer and diluted with media. Cells were then seeded in 96-well microtiter plates at a density of 5,000 cells/well. Cells were incubated for 24 hours before adding the compounds. Compounds were weighed out and diluted with DMSO to a final concentration of 10 mM. From here a “mother plate” was prepared at 200X the final concentration in the culture. The final concentration of DMSO in the tissue culture media should not exceed 1%. […] Each compound was assayed in duplicate. Cells were exposed to the compounds for 72 h and then processed for CellTiter-Glo® Luminescent Cell Viability Assay (Promega) read out according to manufacturer's Instruction and read on EndVision (Perkin Elmer). Percentage of viability inhibition was calculated using ActivityBase from IDBS. Potential synergy between drugs was evaluated by calculating the combination index (CI) based on the Bliss Independence model, whereby the CI was calculated with the following equation:
where Ea indicates the viability effect of drug A, Eb indicates the viability effect of drug B and Eab indicates the viability effect of the drug combination. CI<1 indicates synergism, CI=1 indicates additivity and CI>1 indicates antagonism.

SMILES | CI (combination index)
C[C@]12CC[C@@H]3c4ccc(O)cc4C[C@@H](CCCCCCCCC[S+]([O-])CCCC(F)(F)C(F)(F)F)[C@H]3[C@@H]1CC[C@@H]2O (some centres unmarked) [Fulvestrant] | 0.60
Cc1ccc(Nc2nccc(N(C)c3ccc4c(C)n(C)nc4c3)n2)cc1S(N)(=O)=O [Pazopanib] | 0.57
NC1(c2ccc(-c3nc4ccn5c(=O)[nH]nc5c4cc3-c3ccccc3)cc2)CCC1 [MK-2206] | 0.64
C#Cc1cccc(Nc2ncnc3cc(OCCOC)c(OCCOC)cc23)c1 [ERLOTINIB, Erlotinib] | 0.62
O=C(CCCCCCNC(=O)c1cnc(N(c2ccccc2)c2ccccc2)nc1)NO [Ricolinostat, ACY-1215, Ricolinostat] | 0.69
Cc1nc(NC(=O)N2CCC[C@H]2C(N)=O)sc1-c1ccnc(C(C)(C)C(F)(F)F)c1 [BYL-719, Alpelisib] | 0.59
CS(=O)(=O)N1CCN(Cc2cc3nc(-c4cccc5[nH]ncc45)nc(N4CCOCC4)c3s2)CC1 [GDC-0941, Pictilisib] | 0.85
CCN(CC)C(=S)SSC(=S)N(CC)CC [Disulfiram] | 0.67
CC[C@H](Nc1ncnc2[nH]cnc12)c1nc2cccc(F)c2c(=O)n1-c1ccccc1 [CAL-101, IDELALISIB, Idelalisib] | 0.67
CN(NC(=O)CC(=O)NN(C)C(=S)c1ccccc1)C(=S)c1ccccc1 [ELESCLOMOL, Elesclomol] | 0.78
CC(C)[C@H](O)C(=O)N[C@@H](C)C(=O)N[C@@H]1C(=O)N(C)CCc2ccccc21 [Semagacestat] | 0.53

Target: PIM1 (Homo sapiens (Human), UniProt P11309)
Test: PIM1 activity, methodology of WO2013/005041
Type: biochemical
Details: compounds from the present invention

Chain of PIM1 (P11309 whole entry, species assumed): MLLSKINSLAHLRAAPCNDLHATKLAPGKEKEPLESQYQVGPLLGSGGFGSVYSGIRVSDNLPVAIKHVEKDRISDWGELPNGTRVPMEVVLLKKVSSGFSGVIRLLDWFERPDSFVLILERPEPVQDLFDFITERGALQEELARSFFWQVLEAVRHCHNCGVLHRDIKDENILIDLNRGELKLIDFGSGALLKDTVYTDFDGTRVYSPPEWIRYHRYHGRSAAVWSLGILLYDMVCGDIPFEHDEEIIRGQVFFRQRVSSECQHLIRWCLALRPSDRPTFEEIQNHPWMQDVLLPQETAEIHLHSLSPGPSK

SMILES | IC50
Cc1nc2c3c(c(NCC4(F)CCNCC4)nn2c1-c1ccncc1)CCCO3 [Compound 6, (4-Fluoro-piperidin-4-ylmethyl)-(2-methyl-3-pyridin-4-yl-7,8-dihydro-6H-9-oxa-1,3a,4-triaza-cyclopenta[a]naphthalen-5-yl)-amine] | 3300 nM
Cc1nc2c3c(c(N[C@H]4CC[C@@](C)(O)CC4)nn2c1-c1ccncc1)OCCN3C [Compound 27, 4-(2,9-Dimethyl-3-pyridin-4-yl-8,9-dihydro-7H-6-oxa-1,3a,4,9-tetraaza-cyclopenta[a]naphthalen-5-ylamino)-1-methyl-cyclohexanol] | 3180 nM
Cc1nc2c3c(c(N4CCC[C@@H](CN)C4)nn2c1-c1ccnc(Cl)c1)CCCO3 [Compound 3, C-{(S)-1-[3-(2-Chloro-pyridin-4-yl)-2-methyl-7,8-dihydro-6H-9-oxa-1,3a,4-triaza-cyclopenta[a]naphthalen-5-yl]-piperidin-3-yl}-methylamine] | > 10000 nM
Cc1nc2c3c(c(NCC4CCNCC4)nn2c1-c1ccnc(Cl)c1)N(C)CCO3 [Compound 10, [3-(2-Chloro-pyridin-4-yl)-2,6-dimethyl-7,8-dihydro-6H-9-oxa-1,3a,4,6-tetraaza-cyclopenta[a]naphthalen-5-yl]-piperidin-4-ylmethyl-amine] | 1090 nM
Cc1nc2c3c(c(NCCCCO)nn2c1-c1ccnc(Cl)c1)N(C)CCO3 [Compound 12, 4-[3-(2-Chloro-pyridin-4-yl)-2,6-dimethyl-7,8-dihydro-6H-9-oxa-1,3a,4,6-tetraaza-cyclopenta[a]naphthalen-5-ylamino]-butan-1-ol] | 1810 nM
Cc1nc2c3c(c(N4CCCC(CN)C4)nn2c1-c1ccnc(Cl)c1)CCCO3 (centres unmarked) [Compound 2, C-{1-[3-(2-Chloro-pyridin-4-yl)-2-methyl-7,8-dihydro-6H-9-oxa-1,3a,4-triaza-cyclopenta[a]naphthalen-5-yl]-piperidin-3-yl}-methylamine] | 3400 nM
Cc1nc2c3c(c(N4CCC[C@H](CN)C4)nn2c1-c1ccnc(Cl)c1)CCCO3 [Compound 4, C-{(R)-1-[3-(2-Chloro-pyridin-4-yl)-2-methyl-7,8-dihydro-6H-9-oxa-1,3a,4-triaza-cyclopenta[a]naphthalen-5-yl]-piperidin-3-yl}-methylamine] | 2270 nM

Target: HASPIN (Homo sapiens (Human), UniProt Q8TF76)
Test: HASPIN biochemical assay (ADP-Glo, HASPIN autophosphorylation)
Details: ATP 150 μM, 60 min at 30° C.
Experimental: HASPIN biochemical Assay: The biochemical assay to measure HASPIN activity relies on the ADP-Glo™ assay kit (Promega) that determines the amount of ADP as direct product of the kinase enzyme activity. Assay conditions were as indicated by the kit manufacturers with the following adaptations for the kinase activity step: Kinase assay buffer and assay volume (15 mM HEPES pH 7.5, 20 mM NaCl, 1 mM EGTA, 0.02% TWEEN 20, 10 mM MgCl2, 0.1 mg/ml BGG)/25 μL assay volume). Incubation time and temperature: 60 min at 30° C. HASPIN final concentration: 0.9 μg/mL. ATP final concentration: 150 μM. HASPIN autophosphorylation was measured. Assays were performed in 384-well plates. The final outcome of the coupled reactions provided by the kit is the release of luciferase and has been measured with a multilabel HTS counter Victor V/Envision. Values were normalized against the control activity included (100% HASPIN activity, without compound). Values were plotted against the inhibitor concentration and fit to a sigmoid dose-response curve using Activity base by IDBS software.

Chain of HASPIN (Q8TF76 whole entry): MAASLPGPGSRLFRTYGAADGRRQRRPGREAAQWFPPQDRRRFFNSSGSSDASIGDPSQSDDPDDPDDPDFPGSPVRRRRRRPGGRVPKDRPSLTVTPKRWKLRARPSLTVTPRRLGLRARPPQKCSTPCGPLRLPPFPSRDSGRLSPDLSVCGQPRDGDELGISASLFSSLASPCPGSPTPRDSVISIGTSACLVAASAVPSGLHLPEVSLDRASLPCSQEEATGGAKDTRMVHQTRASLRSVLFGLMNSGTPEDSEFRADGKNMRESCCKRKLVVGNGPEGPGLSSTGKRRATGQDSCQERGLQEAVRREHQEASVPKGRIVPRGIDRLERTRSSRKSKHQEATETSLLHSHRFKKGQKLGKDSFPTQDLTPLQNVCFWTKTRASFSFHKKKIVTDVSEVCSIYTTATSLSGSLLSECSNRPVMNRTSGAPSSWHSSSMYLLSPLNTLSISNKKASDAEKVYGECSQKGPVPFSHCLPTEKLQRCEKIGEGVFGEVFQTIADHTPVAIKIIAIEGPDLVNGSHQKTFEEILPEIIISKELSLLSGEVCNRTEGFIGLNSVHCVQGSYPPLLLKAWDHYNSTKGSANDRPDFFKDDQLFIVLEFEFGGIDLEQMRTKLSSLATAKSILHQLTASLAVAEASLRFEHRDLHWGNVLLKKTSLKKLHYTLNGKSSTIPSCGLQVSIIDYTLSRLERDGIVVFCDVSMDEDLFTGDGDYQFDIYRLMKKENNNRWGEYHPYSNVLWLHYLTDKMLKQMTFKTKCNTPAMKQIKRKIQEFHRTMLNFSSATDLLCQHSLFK

SMILES | IC50
Cc1nc2c3c(c(NCC4(F)CCNCC4)nn2c1-c1ccnc(Cl)c1)C[C@@H](C)O3 (single isomer, unassigned) [Compound 34] | 5.87 nM
Cc1nc2c3c(c(NCC4(F)CCNCC4)nn2c1-c1ccnc(Cl)c1)C[C@H](C)O3 (single isomer, unassigned) [Compound 35] | 20.7 nM
Cc1nc2c3c(c(NCC4(F)CCNCC4)nn2c1-c1ccnc(Cl)c1)CC(C)O3 (racemic) [Compound 33, [3-(2-Chloro-pyridin-4-yl)-2,7-dimethyl-6,7-dihydro-8-oxa-1,3a,4-triaza-as-indacen-5-yl]-(4-fluoro-piperidin-4-ylmethyl)-amine] | 6.37 nM

Target: intracellular HASPIN (phosphorylation of the HASPIN substrate H3T3) (Homo sapiens (Human), UniProt Q8TF76)
Test: Cellular HASPIN inhibition assay (phosphorylation of H3T3), western blot in MV4:11 cells
Type: cell-based
Details: 8 hours of treatment, read-out: pH3T3 EC50
Experimental: 10 min. The protein content of the lysates is determined by DC protein assay (Biorad, Ref. 5000116).

Chain of intracellular HASPIN (phosphorylation of the HASPIN substrate H3T3) (Q8TF76 whole entry): as above

SMILES | EC50
Cc1nc2c3c(c(NCC4(F)CCNCC4)nn2c1-c1ccnc(Cl)c1)C[C@@H](C)O3 (single isomer, unassigned) [Compound 34] | < 50 nM
Cc1nc2c3c(c(NCC4(F)CCNCC4)nn2c1-c1ccnc(Cl)c1)C[C@H](C)O3 (single isomer, unassigned) [Compound 35] | < 50 nM

From patent US20240199630A1, “IMIDAZO[1,2-B]PYRIDAZINE BASED TRICYCLIC COMPOUNDS AS INHIBITORS OF HASPIN AND THERAPEUTIC USES THEREOF” (FUNDACIÓN DEL SECTOR PÚBLICO ESTATAL CENTRO NACIONAL DE …, priority 2021, published 2024)
